# Where two headings read alike, the source gives them in different places. Marks after values point to notes of the source that are not given here.
# How the values were obtained:
# [1] = test system: hog liver carboxyesterase (HLE); assay: HLE-triggered hydrolysis in the presence of glutathione (GSH), followed by HPLC-ESI-MS; type: in vitro ADME; conditions: [GSH] = 5.4 mM
# Experimental: The hydrolytic reactions of 1 was also carried out in the presence of glutathione ([GSH] = 5.4 mM) and carboxyesterase ([HLE] = 28.0 units mL^-1) in a 2-(N-morpholino)ethanesulfonic acid (MES) buffer (0.005/0.005 mol L^-1) at pH 6.2 and 37 °C. Under these conditions, the half-live for the deacetylation of 1 was 18 h. In 2 days, the starting material was converted almost quantitatively to a mixture of acetylated and deacetylated phosphodiester 4 and 16 ([4]/[16] is 1:1). At this stage, 2-cyano-N-(2-phenyl)ethylacrylamide (17) was captured as the glutathione conjugate (18; tR = 24.3 min, Route E). Product 18 was detected by both HPLC and LC-MS analysis ([M+H]^+ = 508.8; see Figure 3). In addition, glutathione was converted to its oxidized form glutathione disulfide (GSSG; [M+H]^+ = 613.5 and tR = 9.9 min).
# The reactions were carried out in sealed tubes immersed in a thermostated water bath (37.0 ± 0.1 °C). The oxonium ion concentration of the reaction solution (3.5 mL) was adjusted with glycine, 2-[4-(2-hydroxyethyl)piperazin-1-yl)]ethanesulfonic acid (HEPES) and 2-(N-morpholino)ethanesulfonic acid (MES) buffers. The ionic strength of the solutions was adjusted to 0.1 mol L^-1 with sodium chloride. The hydronium ion concentration of the buffer solutions was calculated with the aid of the known pKa values of the buffer acid under the experimental conditions. […]
# [2] = design: method as in PMID 19462989; conditions: non-enzymatic, cited from earlier work; for half-life for the disappearance: pH 7.5, 25 °C
# [3] = test system: hog liver carboxyesterase (HLE); assay: Hog liver carboxyesterase (HLE)-catalyzed hydrolysis/deprotection followed by HPLC; type: in vitro ADME; conditions: for level of accumulation of the intermediate, of the initial concentration of 1: during HLE (26 units mL^-1) hydrolysis of 1, pH 7.5, 37 °C; for half-life at 0.4 mmol L^-1: hog liver carboxyesterase (HLE)
# Experimental: The subsequent retro-aldol condensation of 14 to diester 4 ([M+H]^+ = 595.3; Reaction C) was, however, so fast that the amount of 14 remained less than 5% of the initial concentration of 1.
# The reactions were carried out in sealed tubes immersed in a thermostated water bath (37.0 ± 0.1 °C). The oxonium ion concentration of the reaction solution (3.5 mL) was adjusted with glycine, 2-[4-(2-hydroxyethyl)piperazin-1-yl)]ethanesulfonic acid (HEPES) and 2-(N-morpholino)ethanesulfonic acid (MES) buffers. The ionic strength of the solutions was adjusted to 0.1 mol L^-1 with sodium chloride. The hydronium ion concentration of the buffer solutions was calculated with the aid of the known pKa values of the buffer acid under the experimental conditions. The initial substrate concentration was ca. 0.4 mmol L^-1.
# The enzymatic hydrolysis was carried out with Hog Liver Esterase (26 units mL^-1) in a 2-[4-(2-hydroxyethyl)piperazin-1-yl)]ethanesulfonic acid (HEPES) buffer (0.040/0.024 mol L^-1) at pH 7.5 and 37 °C. The samples (200 μL) withdrawn at appropriate intervals were made acidic (pH 2) with 1 mol L^-1 aqueous hydrogen chloride to inactivate the enzyme and to quench the hydrolysis, cooled in an ice-bath and filtered with minisart RC 4 filters (0.45 μm). The composition of the samples was analyzed on an ODS Hypersil C18 column (4 × 250 mm 5 μm, flow rate 1 mL min^-1), using a mixture of acetic acid/sodium acetate buffer (0.045/0.015 mol L^-1) and MeCN, containing ammonium chloride (0.1 mol L^-1). A good separation of the product mixtures of 2 was obtained on using a 5 min isocratic elution with the buffer containing 2% MeCN, followed by a linear gradient (23 min) up to 40.0% MeCN. Signals were recorded on a UV-detector at a wavelength of 267 nm. The reaction products were identified by the mass spectra (LC/MS) using a mixture of water and acetonitrile containing a formic acid (0.1%) as an eluent (Gemini C18 column (2 × 150 mm 5 μm, flow rate 200 μL min^-1). The first order rate constants for the non-enzymatic hydrolysis of triester 1 were obtained by applying first-order rate-law to the diminution of the concentration of the starting material. The enzymatic deacetylations obeyed first-order kinetics at the high HLE concentrations employed.
# [4] = test system: hog liver carboxyesterase (HLE); design: method as in PMID 19462989; conditions: cited from earlier work
# [5] = Non-enzymatic hydrolysis (hydrolytic stability) in buffer followed by RP HPLC; type: physicochemical; conditions: pH 7.5, 37 °C
# Experimental: Hydrolysis of triester 1 was studied at pH 7.5 and 37 °C by analyzing the composition of the aliquots withdrawn from the reaction mixture at appropriate time intervals by RP HPLC. The products formed were identified by spiking with authentic samples and by mass spectrometric analysis (HPLC/ESI-MS). At pH 7.5-10, hydrolysis of the first acetic ester linkages of 1 (Reaction A in Scheme 4) was first-order in hydroxide-ion concentration. […] The subsequent departure of the remnants of this protecting group by retro-aldol condensation gave diester 4 (Route C) without accumulation of the monodeacetylated triester 14 as an intermediate. […]
# The reactions were carried out in sealed tubes immersed in a thermostated water bath (37.0 ± 0.1 °C). […] The hydronium ion concentration of the buffer solutions was calculated with the aid of the known pKa values of the buffer acid under the experimental conditions. […]
# The enzymatic hydrolysis was carried out with Hog Liver Esterase (26 units mL^-1) in a 2-[4-(2-hydroxyethyl)piperazin-1-yl)]ethanesulfonic acid (HEPES) buffer (0.040/0.024 mol L^-1) at pH 7.5 and 37 °C. […] The composition of the samples was analyzed on an ODS Hypersil C18 column (4 × 250 mm 5 μm, flow rate 1 mL min^-1), using a mixture of acetic acid/sodium acetate buffer (0.045/0.015 mol L^-1) and MeCN, containing ammonium chloride (0.1 mol L^-1). […]
# [6] = HLE 26 units mL^-1, pH 7.5, 37 °C
# [7] = HLE 26 units mL^-1, pH 7.5, 25 °C
smiles,measurement,setting,value
"C=C(C#N)C(=O)NCCc1ccccc1 [compound 17, 2-cyano-N-(2-phenylethyl)acrylamide]",capture of the electrophilic by-product by glutathione,"[1]; [HLE] = 28.0 units mL^-1, pH 6.2, 37 °C, detected as conjugate 18",largely trapped by glutathione
CCOC(=O)C(COC(C)=O)(COP(=O)(O)OC[C@H]1O[C@@H](n2cc(C)c(=O)[nH]c2=O)C[C@@H]1O)C(=O)OCC [compound 6],half-life for the disappearance,[2],160.4 days
CC(=O)OCC(C#N)(COP(=O)(OCC1OC(n2cc(C)c(=O)[nH]c2=O)CC1O)OCC(C#N)(CO)C(=O)NCCc1ccccc1)C(=O)NCCc1ccccc1 (stereo not shown) [compound 14],share of deacetylation to 15 (Reaction B) in the total disappearance of 14,[3]; [6],approximately 10%
same,share of retro-aldol condensation to diester 4 in the overall breakdown of 14,"[3]; HLE, pH 7.5, 37 °C",90%
same,"level of accumulation of the intermediate, of the initial concentration of 1",[3],less than 5%
"CCOC(=O)C(COCOC(C)=O)(COP(=O)(OC[C@H]1O[C@@H](n2cc(C)c(=O)[nH]c2=O)C[C@@H]1O)OCC(COCOC(C)=O)(C(=O)OCC)C(=O)OCC)C(=O)OCC [compound 2, thymidine 5´-bis[3-acetyloxymethoxy-2,2-bis(ethoxycarbonyl)propyl]phosphate]","half-life, first of the consecutive deacetylations","[2]; pH 7.5, 37 °C",32 h
same,t1/2 Reaction A,[4]; [6],0.17 min
same,t1/2 Reaction B,[4]; [6],0.90 min
same,t1/2 Reaction C,[4]; [6],10.4 min
same,t1/2 Reaction D,[4]; [6],3.5 h
"CCOC(=O)C(COC(C)=O)(COP(=O)(OC[C@H]1O[C@@H](n2cc(C)c(=O)[nH]c2=O)C[C@@H]1O)OCC(COC(C)=O)(C(=O)OCC)C(=O)OCC)C(=O)OCC [compound 3, thymidine 5´-bis[3-acetyloxy-2,2-bis(ethoxycarbonyl)propyl]phosphate]",half-life for the disappearance,[2],20 days
same,t1/2 Reaction B,[4]; [7],31^a min
same,t1/2 Reaction C,[4]; [7],31^a min
same,t1/2 Reaction A,[4]; [6],3.2 min
same,t1/2 Reaction D,[4]; [6],151 h
CC(=O)OCC(C#N)(COP(=O)(O)OCC1OC(n2cc(C)c(=O)[nH]c2=O)CC1O)C(=O)NCCc1ccccc1 (stereo not shown) [compound 4],half-life at 0.4 mmol L^-1,"[3]; hog, HLE 26 units mL^-1, pH 7.5, 37 °C, read-out: half-life for the disappearance (converted)",47 h
Cc1cn(C2CC(O)C(COP(=O)(O)OCC(C#N)(CO)C(=O)NCCc3ccccc3)O2)c(=O)[nH]c1=O (stereo not shown) [compound 16],"level of accumulation of the intermediate, of the initial concentration of 1",[3],below 5%
"CC(=O)OCC(C#N)(COP(=O)(OCC1OC(n2cc(C)c(=O)[nH]c2=O)CC1O)OCC(C#N)(COC(C)=O)C(=O)NCCc1ccccc1)C(=O)NCCc1ccccc1 (stereo not shown) [compound 1, Thymidine 5´-bis[3-acetyloxy-2-cyano-2-(2-phenylethylcarbamoyl)propyl]phosphate]",half-life at 0.4 mmol L^-1,"[5]; aqueous buffer (glycine, HEPES or MES buffers), no enzyme, read-out: half-life, hydrolysis of the first acetic ester linkage (Reaction A) (converted)",28 h
same,"first-order rate constant k, hydrolysis of the first acetic ester linkage (Reaction A)",[5],7e-06 s⁻¹
same,"conversion to 5´-TMP, times as fast as 3 (comparison of half-lives of Reaction D)","[3]; HLE, pH 7.5, 37 °C",3 times
same,half-life at 0.4 mmol L^-1,"[3]; pig, HLE 26 units mL^-1, pH 7.5, 37 °C, I = 0.1 mol L^-1, read-out: t1/2 Reaction A (enzymatic deacetylation of triester, disappearance of starting material)",0.0633 h
same,half-life at 0.4 mmol L^-1,"[1]; hog, [HLE] = 28.0 units mL^-1, MES buffer, pH 6.2, 37 °C, read-out: half-life for the deacetylation (converted)",18 h

# Source: publication PMC6259260, “3-Acetyloxy-2-cyano-2-(alkylaminocarbamoyl)propyl Groups as Biodegradable Protecting Groups of Nucleoside 5´-mono-Phosphates” (Molecules, 2011)
